Laboratory results from patent publication US20190242876A1, “GENETICALLY ENCODED CELL DEATH INDICATORS AND METHODS OF USE” (The J. David Gladstone Institutes, A Testamentary Trust …, priority 2016, published 2019).

Tests used:
[1] = tested on: rat primary cortical neurons; assay: Glutamate exposure of neurons expressing RGEDI, survival by GEDI ratio; type: cell-based; settings: within three hours of glutamate exposure
Text: Briefly, neurons expressing RGEDI were exposed to the neurotransmitter glutamate. […] Furthermore, features of neurons such as neurite area were identified as associated with neurons that are resistant to high Glutamate exposure. These studies indicate that GEDIs can be used for screening for drug resistant or drug sensitive cells and identifying physiological characteristics of those cells that may underlie their sensitivity or resistance.

Rat primary neurons [2] = assay: KCl membrane depolarization of neurons expressing RGEDI-P2A-EGFP; type: cell-based; settings: 10 mM KCl (FIG. 21D)
Procedure: FIG. 21A depicts representative images of individual neurons over the time course. […] Next, the RGEDI intensity was plotted as a percentage increase from baseline (t=0) (ie delta RGEDI/baseline RGEDI). Using the morphology as a readout, the time of death was determined for each neuron. […] FIG. 21D.

[3] = tested on: rat primary cortical neurons; assay: Toxicity of neurodegenerative disease proteins in neurons, cumulative hazard from GEDI ratio; type: cell-based; settings: automated GEDI ratio, 8 time points
Procedure: Rat primary cortical neuron cultures were prepared from embryos (embryonic day 16-18) and co-transfected using Lipofectamine2000 (ThermoFisher Scientific, Carlsbad, Calif., USA) with 150 ng/well of hSyn1:mRuby-P2a-GCaMP (Addgene #50943) and either Htt^ex1-Q27 or Htt^ex1-Q97 (known to induce neurodegeneration) in a 96-well format. […] FIG. 17A. The GCaMP intensity was detected and plotted as a percentage increase from baseline (t=0) (i.e., delta GCaMP/baseline GCaMP). Using the morphology as a readout, the time of death was determined for each neuron.
To examine the changes in signal increase as a cell dies, rat primary cortical neurons expressing GCaMP6f, mRuby, and HttEx1-Q97 were examined overtime. […] Using time lapse imaging, it was observed that 0 out of 94,106 dead rat primary cortical neurons examined regenerated after elevated GEDI signal, indicating elevated GEDI signal is terminal. In addition, the ratio of GCaMP6f/mRuby signal from rat primary cortical neurons expressing HttEx1-Q97 and HttEx1-Q25 at 0, 24, 48, 72, 96, and 120 hours post transfection was determined. FIG. 1B, the horizontal line at 0.75 separates dead from live neurons. […] Similarly, human motor neurons differentiated from induced pluripotent stem cells were transfected with […] hSyn1:mRuby-P2a-GCaMP and imaged with robotic microscopy every 6 hours up to 12 hours. […]

Rat primary neurons [4] = assay: RGEDI/EGFP ratio after NaN3-induced acute death of neurons; type: cell-based
Procedure: ANOVA Tukey's ***p<0.001, ns=not significant.
Rat primary neurons were transfected with hsyn1:RGEDI-P2A-EGFP as described above and imaged at DIV10. […] A non-linear regression was fit to the NaN3+Ca^2+ time course and a half-life of RGEDI/EGFP signal increase was determined to be 5 minutes and 50 seconds. […] ANOVA Tukey comparison to 0 minutes of each condition, *** p<0.001, **** p<0.0001. […] FIG. 3.

[5] = tested on: motor neurons of zebrafish larvae; assay: Targeted neuronal ablation with MTZ in nitroreductase-expressing zebrafish; type: in vivo
Procedure: Briefly, zebrafish embryos were co-injected at 1-cell stage with mnx1:Gal4, UAS:GCaMP6f, and UAS:Nitroreductase-mCherry. Embryos were grown at 28.5° C. until 48 hours post fertilization (hpf), anaesthetized in tricaine, embedded in low-melting point agarose, and then imaged on a spinning disk confocal microscope. Images were acquired of the same motor neurons within the zebrafish at 0, 24 hours, and 48 hours after MTZ or DMSO was added to the media. Intensity of GCaMP6f was plotted as the change in fluorescence intensity from time point 0.
The GEDI reporter was also tested in skeletal muscle fiber. FIG. 13C. […] FIGS. 14A, 14B, and 22.

N[C@@H](CCC(=O)O)C(=O)O [glutamate]
neuronal death [1]: killed many of the cells

[Cl-].[K+] [KCl]
excitation of RGEDI-P2A-EGFP signal (Rat primary neurons [2]): failed to excite

TDP43: neurodegenerative disease protein transfected into neurons
toxicity over time compared to control (cumulative hazard) [3]: increased toxicity

[N-]=[N+]=[N-].[Na+] [NaN3]
RGEDI/EGFP ratio (Rat primary neurons [4]; 2% NaN3 in NBM with ~2 mM Ca^2+, compared to saline): significantly increased | RGEDI/EGFP ratio (Rat primary neurons [4]; NaN3, neurons washed 3x and incubated in Ca2+ free PBS): did not show a significant increase

Cc1ncc([N+](=O)[O-])n1CCO [MTZ, metronidazole]
GCaMP expression ([5]; 24 and 48 hours after addition, zebrafish larvae motor neurons, NTR-mCherry): increased | RGEDI-P2a-3XtagBFP signal ([5]; zebrafish neurons co-expressing NTR-mVenus, versus DMSO): signal increased

α-synuclein
toxicity over time compared to control (cumulative hazard) [3]: increased toxicity
